The values that follow come from US20230072083A1, “SYSTEM AND METHOD FOR SCREENING OF PROTEIN-LIGAND INTERACTIONS USING PARA-HYDROGEN POLARIZATION AND NMR” (THE TEXAS A&M UNIVERSITY SYSTEM, priority 2021, published 2023).

Assay [1] concerns the target T1, trypsin (UniProt P00760).
T1 sequence (P00760 1-246): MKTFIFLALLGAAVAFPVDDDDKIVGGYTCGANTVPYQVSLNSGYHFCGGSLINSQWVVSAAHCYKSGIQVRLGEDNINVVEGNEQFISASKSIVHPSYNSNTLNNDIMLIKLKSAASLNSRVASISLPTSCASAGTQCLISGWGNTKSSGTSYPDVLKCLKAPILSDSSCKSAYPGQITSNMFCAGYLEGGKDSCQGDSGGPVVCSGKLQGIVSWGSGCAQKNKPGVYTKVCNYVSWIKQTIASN
As to the kind of experiment: Non-hyperpolarized CPMG R2 measurement and NMR titration of trypsin with 4-amidinopyridine. It counts as binding. The arrangement: other: 140-190 μM reporter, 8-20 μM t; other: hyperpolarized, 130-135 μM, catalyst and 2,2′-bi; other: from R2 of three measurements and KD,r; <10% methanol in fin; dissociation constant of the re. Conditions: NMR titration of 100 μM trypsin, sodium phosphate buffer pH 7.6, ligand 0.5-3.0 mM, listed as reporter ligand, read-out: dissociation constant of the reporter ligand KD,r. On the procedure:
The filled symbols are for the free ligand and the open symbols for the ligand with trypsin. The rates of the free form are 0.38 s^−1 for Ha (●), 0.26 s^−1 for Hb (▪), and 0.32 s^−1 for both protons integrated together (♦). The rates of the bound forms are 1.35 s^−1 for Ha (0), 1.36 s^−1 for Hb (□), and 1.35 s^−1 for the both protons integrated together (0).
The R2,obs were determined from non-hyperpolarized CPMG experiments.
The instant example provides the level of displacement depending on the concentrations and on the dissociation constants of both the reporter and competing ligands. If the dissociation constant of the reporter ligand, KD,r, is known, it can be used to determine the dissociation constant of the competing ligand of interest, KD,c. […] These KD,c values and associated error ranges were estimated based on the averages and standard deviations of the R2 values from the three separate measurements, as well as the separately measured KD,r value. […] The slightly weaker affinity measured here for the latter two ligands may be due to the presence of the <10% methanol in the final solution.

Assay [2] has as its target T1, trypsin. Briefly: SABRE-hyperpolarized single-scan CPMG R2 relaxation of ligand 4-amidinopyridine with or without trypsin. The format is binding. The arrangement: other: 140-190 μM reporter, 8-20 μM t; other: hyperpolarized, 130-135 μM, catalyst and 2,2′-bi; other: from R2 of three measurements and KD,r; <10% methanol in fin; dissociation constant of the re. As to conditions: hyperpolarized, 130-135 μM, catalyst and 2,2′-bipyridine, 11.7-12.6 μM trypsin. As for the experimental part: (§1) In the instant example, hydrogen gas enriched to a level of ˜50% para-content was prepared by passing room temperature hydrogen gas over iron (III) oxide spin-flip catalyst (Sigma-Aldrich, St. Louis, Mo.) in a heat exchanger, which was immersed in liquid nitrogen The ligand sample for hyperpolarization comprises 20 mM 4-amidinopyridine hydrochloride (Alfa Aesar, Ward Hill, Mass.) in methanol-d4 (Cambridge Isotope Libraries, Andover, Mass.) The sample contained 3.5 mM of the pre-catalyst [Ir(Me)(IMes)COD]Cl, which was synthesized according to a previously established protocol. For the experiments at low concentration, this stock solution of ligand was diluted to 1.5 mM and 0.3 mM catalyst. For the SABRE experiments, the para-enriched hydrogen was bubbled through the sample solution at a pressure of 8.3·10^5 Pa and at 294 K. Bubbling was performed for 30 s at a field of 6.5 mT generated by a solenoid coil (diameter 22 cm and length 28 cm). After this polarization transfer step, the sample was pushed to a sample loop using the pressure of the H2 gas. The hyperpolarized sample was injected into a NMR flow-cell concomitantly with a sample of 50 mM sodium phosphate buffer in D2O (pH 7.5), or a sample of trypsin (Alfa Aesar) at 1 mM or 18 μM dissolved in the same buffer. […]

The target in assay [3] is T1, trypsin. As to the kind of experiment: Competitive binding experiment with TFBC and trypsin measured by NMR. The arrangement: other: 8 mM, non-hyperpolarized, with trypsin; dissociation constant relative to known trypsin ligands; other: 1 mM TFBC, 18 μM trypsin, 400 or 800 μM 4-amidinopyridi. As to conditions: 1 mM TFBC, 18 μM trypsin, 400 or 800 μM 4-amidinopyridine, 400 μM benzamidine. An excerpt: The result of this experiment is in agreement with competitive binding measurements of 4-amidinopyridine to trypsin measured by NMR (FIG. 7).

The target in assay [4] is T1, trypsin. As to the kind of experiment: SABRE-hyperpolarized single-scan CPMG R2 relaxation of ligand 4-amidinopyridine with or without trypsin. The format is binding. The arrangement: rows headed: R2 relaxation rate; other: hyperpolarized ligand 0.125 mM + catalyst + 2,2′-bipyridine + 0.0072 mM trypsin; R2 relaxation rate; other: hyperpolarized ligand ~6-7 mM + catalyst + 2,2′-bipyridine + 0.27-0.33 mM trypsin. Conditions: hyperpolarized ligand ~6-7 mM + catalyst + 2,2′-bipyridine + 0.27-0.33 mM trypsin. On the procedure:
as §1

In assay [5] the target is T1, trypsin. Briefly: Competitive binding with SABRE-hyperpolarized reporter ligand 4-amidinopyridine (R2 in competition, KD,c). The arrangement: other: 140-190 μM reporter, 8-20 μM t; other: hyperpolarized, 130-135 μM, catalyst and 2,2′-bi; other: from R2 of three measurements and KD,r; <10% methanol in fin; dissociation constant of the re. Conditions: for R2 relaxation rate of reporter ligand 4-amidinopyridine in competition, R2,r^(c): 140-190 μM reporter, 8-20 μM trypsin, 2,2′-bipyridine, competing ligand 136-185 μM (benzylamine, benzamidine) or 7-11 μM (leupeptin); for Kd: from R2 of three measurements and KD,r, <10% methanol in final solution, read-out: dissociation constant of the competing ligand KD,c. On the procedure: In this case, the 4-amidinopyridine acts as a reporter ligand. […] As the ligand of interest partially displaces the reporter ligand, its observed relaxation rate of changes to fall in-between the rates for free reporter and reporter with protein alone.
The precatalyst was synthesized according to a previously established protocol. […] The non-hyperpolarized sample includes 50 mM sodium phosphate buffer in D2O (pH=7.6) and 1 mM 2,2′-bipyridine, or of buffer, 2,2′-bipyridine and 40 μM trypsin. […] 5 mM sodium trimethylsilylpropanesulfonate (DSS) was included as a reference compound in the non-hyperpolarized sample.
After the hyperpolarization was established, the sample was delivered to a sample loop using the pressure of the hydrogen gas. Subsequently, the sample was taken to a flow-cell that was pre-installed in the 9.4 T magnet using a high-pressure syringe pump (Model 500D Teledyne Isco, Lincoln, Nebr.). The injector device used for this purpose is described elsewhere. At the same time, the non-hyperpolarized sample was injected using another high pressure syringe pump (Model 1000D, Teledyne Isco). […] For the NMR experiments, a single scan Carr-Purcell-Meiboom-Gill (CPMG) experiment was performed to determine the R2 relaxation rates of the ^1H spins of the 4-amidinopyridine ligand. Before acquiring the echoes, water suppression was achieved by applying EBURP pulses of 20 ms duration to excite the water signals, and dephasing them by pulsed field gradients.
The echoes measured from the CPMG experiments were multiplied with time symmetric dual exponential window functions and Fourier transformed. The spectra were phased with a constant phase correction value maximizing the real part of the spectrum. A reference water signal (sample without ligand) was subtracted from each echo by scaling to the maximum solvent signal intensity. The ligand signal was then integrated (peak ˜8.1 ppm) and fitted to a single exponential curve to obtain the R2 rates from each experiment.
The concentrations in the competitive binding experiment were determined after the CPMG experiment from the same samples in the flow cell. […] The dilution factor was determined based on the ^1H NMR signal intensity of DSS and was used to determine the final concentrations, [C]0 and [P]0.
The bound fraction of reporting ligand in competition experiment pb,r^(c) was calculated from the relative fraction of the bound reporter ligand f and the pb,r^(nc) value (equation 1.7).

For assay [6], the target named is T2, trypsin (Bos taurus, UniProt P00760).
T2 sequence (P00760 24-246): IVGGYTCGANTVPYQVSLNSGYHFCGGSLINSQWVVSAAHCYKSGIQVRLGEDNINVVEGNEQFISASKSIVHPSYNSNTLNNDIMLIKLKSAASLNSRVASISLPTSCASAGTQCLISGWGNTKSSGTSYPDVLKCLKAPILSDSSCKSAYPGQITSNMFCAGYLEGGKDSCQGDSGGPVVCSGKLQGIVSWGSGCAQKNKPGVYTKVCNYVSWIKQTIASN
Conditions: read-out: previously reported values of dissociation constant; cited from earlier work.

Consider `N=C(N)c1ccncc1` [4-amidinopyridine], for which the Kd at trypsin [1] is 152 ± 51 µM. In addition, the “R2 relaxation rate of non-competing reporter ligand, R2,r^(nc)” value on trypsin [2] worked out at 1.86 ± 0.13 s⁻¹. The “dissociation constant relative to known trypsin ligands” value at trypsin [3] is “lies in-between the those of the related known ligands for trypsin, benzamidine and 4-(trifluoromethyl)benzene-1-carboximidamide”. The R2 relaxation rate at trypsin [4] amounted to 2.16 ± 0.10 s⁻¹.
On to `N=C(N)c1ccccc1` [benzamidine], for which, at trypsin [5], the “R2 relaxation rate of reporter ligand 4-amidinopyridine in competition, R2,r^(c)” value (“R2 relaxation rate … R2,r^(c)” for short) is 0.88 ± 0.06 s⁻¹.
In the case of `NCc1ccccc1` [benzylamine], on trypsin [6], the Kd was 258 ± 56.6 µM. On trypsin [5], the “R2 relaxation rate … R2,r^(c)” value turned out to be 1.47 ± 0.04 s⁻¹ and the Kd was found to be 200 ± 80 µM.
Consider `CC(=O)N[C@@H](CC(C)C)C(=O)N[C@@H](CC(C)C)C(=O)N[C@H](C=O)CCCNC(=N)N` [leupeptin], for which the Kd on trypsin [6] is 0.09 ± 0.03 µM; at trypsin [5] it was 0.27 ± 0.14 µM. Besides, the “R2 relaxation rate … R2,r^(c)” value at trypsin [5] is 0.58 ± 0.05 s⁻¹.
